Values of other authors as cited in patent publication US8691514B2, “Method for selective control of helper T cell function” (Japan Science and Technology Agency, priority 2008, dated 2014).

Assays:
CD8 positive T cell = settings: treated with GlcCer synthetase inhibitor; Nagafuku et al. 2003, Blank et al. 2005
CD4 positive T cell = settings: treated with GlcCer synthetase inhibitor; Nagafuku et al. 2003, Blank et al. 2005

Which “function of the CD8 positive T cell” value (CD8 positive T cell) does the source give for CCCCCCCCCC(=O)N[C@H](CN1CCOCC1)[C@H](O)c1ccccc1.Cl [D-PDMP, D-threo-1-phenyl-2-decanoylamiono-3-morpholino-1-prppanol.HCl] here?
Its value is “suppressed”.

What about the “function of the CD4 positive T cell” value (CD4 positive T cell) of the same compound?
The value was “suppressed”.
